Values quoted from earlier work as cited in PMC9271465 (ESMO Open, 2022).
Where two headings read alike, the source gives them in different places.

How the values were obtained:
[1] = tested on: EGFR-mutated NSCLC; details: cited from earlier work
[2] = cited from earlier work
[3] = tested on: EGFR T790M+ NSCLC; details: cited from earlier work
[4] = EGFR T790M+ advanced NSCLC after progression on prior EGFR-TKI
[5] = central nervous system activity
[6] = metastatic EGFR T790M+ NSCLC progressed during or after first-line EGFR-TKI

C#Cc1cccc(Nc2ncnc3cc4c(cc23)OCCOCCOCCO4)c1 [Icotinib]
median OS [1]: 30.5 months | median PFS [1]: 11.2 months

C=CC(=O)Nc1cccc(Oc2nc(Nc3ccc(N4CCN(C)CC4)c(F)c3)nc3[nH]ccc23)c1 [abivertinib]
most common TRAEs [2]: rash/diarrhea

C=CC(=O)Nc1cc(Nc2nccc(-c3cn(C4CC4)c4ccccc34)n2)c(OC)cc1N(C)CCN(C)C [almonertinib]
intracranial ORR [3, 4]: 60.9% | updated ORR [3, 4]: 68.9% | DCR ([3]; phase I trial): 89% | ORR ([3]; phase I trial): 50% | PFS ([3]; phase I trial): 9.6 months

C#Cc1cccc(Nc2ncnc3cc(OCCOC)c(OCCOC)cc23)c1 [erlotinib]
median overall survival (OS) ([1]; EGFR-mutated NSCLC): 19.3-30.5 months | median progression-free survival (PFS) ([1]; EGFR-mutated NSCLC): 9.7-10.8 months

C=CC(=O)Nc1cc(Nc2nccc(-c3cn(C)c4ccccc34)n2)c(OCC(F)(F)F)nc1N(C)CCN(C)C [furmonertinib]
ORR ([3]; EGFR T790M-mutated NSCLC): 74% | median PFS ([3]; EGFR T790M-mutated NSCLC): 9.6 months

C=CC(=O)Nc1cc(Nc2nccc(-n3cc(CN(C)C)c(-c4ccccc4)n3)n2)c(OC)cc1N1CCOCC1 [lazertinib]
most common TRAEs [2]: rash/pruritis

Cc1cc(C(=O)Nc2nc3cccc(Cl)c3n2[C@@H]2CCCCN(C(=O)/C=C/CN(C)C)C2)ccn1 [nazartinib]
most common TRAEs [2]: rash/diarrhea

C=CC(=O)Nc1cc(Nc2nccc(-c3cn(C)c4ccccc34)n2)c(OC)cc1N(C)CCN(C)C [osimertinib]
intracranial DCR [3, 5]: 92% | intracranial ORR [3, 5]: 54% | ORR [3, 6]: 61%-71 | median PFS [3, 6]: 9.6-15.2 months
